Measured values reported in patent publication US20220226341A1, “Pharmaceutical Composition for Alzheimer's Disease” (Kyoto University, priority 2019, published 2022).

Assay: Tissue distribution of radioactivity after single intravenous administration of 14C-labeled Compound 1 (blood-brain barrier penetration)
Type: in vivo
Details: rats, single iv 5 mg/kg 14C-labeled, n = 3
Procedure: [Testing the Penetration of the Compound Through the Blood-Brain Barrier]
Brain permeability (intracerebral transferability) of Compound 1 was evaluated.
^14C-labeled Compound 1 was intravenously administered once in a dose of 5 mg/kg (3.52 MBq/kg) to rats, and histological distribution (biodistribution) thereof was studied.

## Fc1ccc(N2CCCCC2)c(NC(=S)c2ccncc2)c1 [Compound 1]
Adrenal gland, 5 min
  Radioactivity concentration: 47334.91 ng eq. of Compound 1/g or mL
Adrenal gland, 6 h
  Radioactivity concentration: 1517.3 ng eq. of Compound 1/g or mL
Adrenal gland, 24 h
  Radioactivity concentration: 195.16 ng eq. of Compound 1/g or mL
Adrenal gland, 72 h
  Radioactivity concentration: 23.21 ng eq. of Compound 1/g or mL
Aorta, 5 min
  Radioactivity concentration: 1995.27 ng eq. of Compound 1/g or mL
Aorta, 6 h
  Radioactivity concentration: 730.03 ng eq. of Compound 1/g or mL
Aorta, 24 h
  Radioactivity concentration: 76.22 ng eq. of Compound 1/g or mL
Bonemarrow, 5 min
  Radioactivity concentration: 6109.89 ng eq. of Compound 1/g or mL
Bonemarrow, 6 h
  Radioactivity concentration: 900.75 ng eq. of Compound 1/g or mL
Bonemarrow, 24 h
  Radioactivity concentration: 106.7 ng eq. of Compound 1/g or mL
Brown fat, 5 min
  Radioactivity concentration: 8467.9 ng eq. of Compound 1/g or mL
Brown fat, 6 h
  Radioactivity concentration: 6412.21 ng eq. of Compound 1/g or mL
Brown fat, 24 h
  Radioactivity concentration: 217.43 ng eq. of Compound 1/g or mL
Brown fat, 72 h
  Radioactivity concentration: 11.3 ng eq. of Compound 1/g or mL
Cecum, 5 min
  Radioactivity concentration: 5555.55 ng eq. of Compound 1/g or mL
Cecum, 6 h
  Radioactivity concentration: 3979.48 ng eq. of Compound 1/g or mL
Epididymis, 5 min
  Radioactivity concentration: 2568.88 ng eq. of Compound 1/g or mL
Epididymis, 6 h
  Radioactivity concentration: 1809.29 ng eq. of Compound 1/g or mL
Epididymis, 24 h
  Radioactivity concentration: 312.66 ng eq. of Compound 1/g or mL
Epididymis, 72 h
  Radioactivity concentration: 21.99 ng eq. of Compound 1/g or mL
Eyeball, 5 min
  Radioactivity concentration: 1785.93 ng eq. of Compound 1/g or mL
Eyeball, 6 h
  Radioactivity concentration: 960.39 ng eq. of Compound 1/g or mL
Eyeball, 24 h
  Radioactivity concentration: 117.64 ng eq. of Compound 1/g or mL
Eyeball, 72 h
  Radioactivity concentration: 7.03 ng eq. of Compound 1/g or mL
Fat, 5 min
  Radioactivity concentration: 1181.88 ng eq. of Compound 1/g or mL
Fat, 6 h
  Radioactivity concentration: 5031.8 ng eq. of Compound 1/g or mL
Fat, 24 h
  Radioactivity concentration: 1665.35 ng eq. of Compound 1/g or mL
Fat, 72 h
  Radioactivity concentration: 112.35 ng eq. of Compound 1/g or mL
Harderian gland, 5 min
  Radioactivity concentration: 12633.83 ng eq. of Compound 1/g or mL
Harderian gland, 6 h
  Radioactivity concentration: 1418.19 ng eq. of Compound 1/g or mL
Harderian gland, 24 h
  Radioactivity concentration: 131.47 ng eq. of Compound 1/g or mL
Harderian gland, 72 h
  Radioactivity concentration: 8.95 ng eq. of Compound 1/g or mL
Heart, 5 min
  Radioactivity concentration: 8604.53 ng eq. of Compound 1/g or mL
Heart, 6 h
  Radioactivity concentration: 912.54 ng eq. of Compound 1/g or mL
Heart, 24 h
  Radioactivity concentration: 105.78 ng eq. of Compound 1/g or mL
Heart, 72 h
  Radioactivity concentration: 10.01 ng eq. of Compound 1/g or mL
Kidney, 5 min
  Radioactivity concentration: 13230.64 ng eq. of Compound 1/g or mL
Kidney, 6 h
  Radioactivity concentration: 2138.26 ng eq. of Compound 1/g or mL
Kidney, 24 h
  Radioactivity concentration: 264.55 ng eq. of Compound 1/g or mL
Kidney, 72 h
  Radioactivity concentration: 31.5 ng eq. of Compound 1/g or mL
Kidney, 168 h
  Radioactivity concentration: 12.02 ng eq. of Compound 1/g or mL
Liver, 5 min
  Radioactivity concentration: 29518.18 ng eq. of Compound 1/g or mL
Liver, 6 h
  Radioactivity concentration: 3033.96 ng eq. of Compound 1/g or mL
Liver, 24 h
  Radioactivity concentration: 740.19 ng eq. of Compound 1/g or mL
Liver, 72 h
  Radioactivity concentration: 180.72 ng eq. of Compound 1/g or mL
Liver, 168 h
  Radioactivity concentration: 48.2 ng eq. of Compound 1/g or mL
Lung, 5 min
  Radioactivity concentration: 7645.96 ng eq. of Compound 1/g or mL
Lung, 6 h
  Radioactivity concentration: 1247.84 ng eq. of Compound 1/g or mL
Lung, 24 h
  Radioactivity concentration: 175.43 ng eq. of Compound 1/g or mL
Lung, 72 h
  Radioactivity concentration: 33.55 ng eq. of Compound 1/g or mL
Lung, 168 h
  Radioactivity concentration: 12.98 ng eq. of Compound 1/g or mL
Mandibular gland, 5 min
  Radioactivity concentration: 13355.34 ng eq. of Compound 1/g or mL
Mandibular gland, 6 h
  Radioactivity concentration: 995.48 ng eq. of Compound 1/g or mL
